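Following 48 hours of exposure in 96-well plates, responses at five concentrations were used to interpolate endpoints linearly. Abbreviation: GI50, concentration required for 50% inhibition of growth. TGI is the concentration that stops growth completely.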
Columns and labels:
Test in all cases: NCI tumour cell line growth inhibition, 48 h
[1] = test system: 786-0 renal
[2] = test system: A549 NSCLC
[3] = test system: ACHN renal
[4] = test system: BT-549 breast
[5] = test system: CAKI-1 renal
[6] = test system: COLO 205 colon
[7] = test system: DU-145 prostate
[8] = test system: EKVX NSCLC
[9] = test system: HCC-2998 colon
[10] = test system: HCT-116 colon
[11] = test system: HCT-15 colon
[12] = test system: HOP-62 NSCLC
[13] = test system: HOP-92 NSCLC
[14] = test system: HT29 colon
[15] = test system: IGROV1 ovarian
[16] = test system: K-562 leukemia
[17] = test system: KM12 colon
[18] = test system: LOX IMVI melanoma
[19] = test system: M14 melanoma
[20] = test system: MALME-3M melanoma
[21] = test system: MCF7 breast
[22] = test system: MDA-MB-231 breast
[23] = test system: MDA-MB-435
[24] = test system: MOLT-4 leukemia
[25] = test system: NCI-H226 lung
[26] = test system: NCI-H23 lung
[27] = test system: NCI-H460 lung
[28] = test system: NCI/ADR-RES ovarian
[29] = test system: OVCAR-4 ovarian
[30] = test system: OVCAR-5 ovarian
[31] = test system: OVCAR-8 ovarian
[32] = test system: PC-3 prostate
[33] = test system: RPMI-8226 leukemia
[34] = test system: SF-268 CNS
[35] = test system: SF-539 CNS
[36] = test system: SK-MEL-2 melanoma
[37] = test system: SK-MEL-28 melanoma
[38] = test system: SK-MEL-5 melanoma
[39] = test system: SNB-19 CNS
[40] = test system: SR leukemia
[41] = test system: SW-620 colon
[42] = test system: TK-10 renal
[43] = test system: U251 CNS
[44] = test system: UACC-257 melanoma
[45] = test system: UACC-62 melanoma
[46] = test system: UO-31 renal
[47] = test system: A498 renal
[48] = test system: HS 578T breast
[49] = test system: NCI-H522 lung
[50] = test system: RXF 393 renal
[51] = test system: SN12C renal
[52] = test system: CCRF-CEM leukemia
[53] = test system: OVCAR-3 ovarian
[54] = test system: SF-295 CNS
[55] = test system: SK-OV-3 ovarian
[56] = test system: SNB-75 CNS

N#Cc1c(N)nc(Sc2ccccc2N)c(C#N)c1-c1ccccc1
TGI [1]: 63300 nM | TGI [2]: > 100000 nM | TGI [3]: 69200 nM | TGI [4]: 95900 nM | TGI [5]: > 100000 nM | TGI [6]: > 100000 nM | TGI [7]: 52300 nM | TGI [8]: > 100000 nM | TGI [9]: 38300 nM | TGI [10]: > 100000 nM | TGI [11]: > 100000 nM | TGI [12]: > 100000 nM | TGI [13]: 64300 nM | TGI [14]: > 100000 nM | TGI [15]: > 100000 nM | TGI [16]: > 100000 nM | TGI [17]: 94800 nM | TGI [18]: 41300 nM | TGI [19]: > 100000 nM | TGI [20]: 46200 nM | TGI [21]: 49800 nM | TGI [22]: 45500 nM | TGI [23]: 97300 nM | TGI [24]: > 100000 nM | TGI [25]: > 100000 nM | TGI [26]: 63700 nM | TGI [27]: 50600 nM | TGI [28]: 42500 nM | TGI [29]: > 100000 nM | TGI [30]: > 100000 nM | TGI [31]: 75000 nM | TGI [32]: 33300 nM | TGI [33]: > 100000 nM | TGI [34]: 75300 nM | TGI [35]: 80100 nM | TGI [36]: 32500 nM | TGI [37]: > 100000 nM | TGI [38]: > 100000 nM | TGI [39]: > 100000 nM | TGI [40]: > 100000 nM | TGI [41]: > 100000 nM | TGI [42]: 34200 nM | TGI [43]: 60200 nM | TGI [44]: > 100000 nM | TGI [45]: 26600 nM | TGI [46]: 34300 nM

COc1cccc(CC2C(=O)NC(=O)NC2=O)c1
GI50 [40]: 39.5 µg/mL

NC(N)=N/N=C/c1c(-c2ccc(Cl)c([N+](=O)[O-])c2)nc2sc3ccccc3n12
GI50 [1]: 951 nM | TGI [1]: 1750 nM | GI50 [47]: 3900 nM | TGI [47]: 11200 nM | GI50 [2]: 1610 nM | TGI [2]: > 12200 nM | GI50 [3]: 862 nM | TGI [3]: 1560 nM | GI50 [4]: 895 nM | TGI [4]: 2120 nM | GI50 [5]: 1660 nM | TGI [5]: 8490 nM | GI50 [6]: 980 nM | GI50 [7]: 2290 nM | TGI [7]: 14800 nM | GI50 [8]: 2030 nM | TGI [8]: 7160 nM | GI50 [9]: 296 nM | TGI [9]: 950 nM | GI50 [10]: 20 nM | TGI [10]: 8970 nM | GI50 [12]: 11600 nM | TGI [12]: 28100 nM | GI50 [48]: 1380 nM | TGI [48]: 2910 nM | GI50 [14]: 1930 nM | TGI [14]: > 50000 nM | GI50 [15]: 11800 nM | TGI [15]: > 50000 nM | GI50 [16]: 209 nM | TGI [16]: > 50000 nM | GI50 [17]: 842 nM | TGI [17]: 2540 nM | GI50 [18]: 92.3 nM | TGI [18]: 170 nM | GI50 [19]: 136 nM | TGI [19]: 12000 nM | GI50 [22]: 697 nM | TGI [22]: 1470 nM | GI50 [23]: 1100 nM | TGI [23]: 2400 nM | GI50 [25]: 1790 nM | TGI [25]: 11100 nM | GI50 [49]: 3660 nM | TGI [49]: > 50000 nM | GI50 [28]: 583 nM | TGI [28]: 1760 nM | GI50 [30]: 773 nM | TGI [30]: 1440 nM | GI50 [31]: 1190 nM | TGI [31]: 2760 nM | GI50 [32]: 738 nM | TGI [32]: 1400 nM | GI50 [50]: 10900 nM | TGI [50]: 26900 nM | GI50 [36]: 26800 nM | TGI [36]: > 50000 nM | GI50 [38]: 952 nM | TGI [38]: 1950 nM | GI50 [51]: 529 nM | TGI [51]: 1380 nM | GI50 [42]: 950 nM | TGI [42]: 1910 nM | GI50 [43]: 95.1 nM | TGI [43]: 177 nM | GI50 [44]: 8380 nM | TGI [44]: 18000 nM | GI50 [45]: 849 nM | TGI [45]: 1580 nM | GI50 [46]: 23600 nM | TGI [46]: > 50000 nM

N#CC(NC(=O)CCl)=C(Cl)Cl
GI50 [1]: 2130 nM | TGI [1]: 5870 nM | GI50 [47]: 1860 nM | TGI [47]: 3880 nM | GI50 [2]: 3510 nM | TGI [2]: 13800 nM | GI50 [3]: 1220 nM | TGI [3]: 2510 nM | GI50 [4]: 1930 nM | TGI [4]: 4100 nM | GI50 [5]: 1690 nM | TGI [5]: 3140 nM | GI50 [52]: 377 nM | TGI [52]: 1790 nM | GI50 [6]: 1440 nM | TGI [6]: 2990 nM | GI50 [7]: 1690 nM | TGI [7]: 4020 nM | GI50 [8]: 1850 nM | TGI [8]: 3810 nM | GI50 [9]: 1890 nM | TGI [9]: 3410 nM | GI50 [10]: 1020 nM | TGI [10]: 3700 nM | GI50 [11]: 680 nM | TGI [11]: 2340 nM | GI50 [12]: 2150 nM | TGI [12]: 4830 nM | GI50 [48]: 3460 nM | TGI [48]: 17100 nM | GI50 [14]: 1760 nM | TGI [14]: 3440 nM | GI50 [15]: 1180 nM | TGI [15]: 2920 nM | GI50 [16]: 595 nM | TGI [16]: 2710 nM | GI50 [17]: 1880 nM | TGI [17]: 4170 nM | GI50 [18]: 1570 nM | TGI [18]: 3100 nM | GI50 [19]: 1340 nM | TGI [19]: 2870 nM | GI50 [20]: 1490 nM | TGI [20]: 3020 nM | GI50 [21]: 1220 nM | TGI [21]: 9070 nM | GI50 [22]: 1730 nM | TGI [22]: 3240 nM | GI50 [23]: 1940 nM | TGI [23]: 4030 nM | GI50 [25]: 2590 nM | TGI [25]: 6560 nM | GI50 [26]: 1700 nM | TGI [26]: 3560 nM | GI50 [27]: 2690 nM | TGI [27]: 7470 nM | GI50 [49]: 437 nM | TGI [49]: 1830 nM | GI50 [28]: 2950 nM | TGI [28]: 16800 nM | GI50 [53]: 1130 nM | TGI [53]: 2460 nM | GI50 [29]: 1760 nM | TGI [29]: 3600 nM | GI50 [30]: 1960 nM | TGI [30]: 3470 nM | GI50 [31]: 2210 nM | TGI [31]: 6080 nM | GI50 [32]: 1690 nM | TGI [32]: 4220 nM | GI50 [50]: 1270 nM | TGI [50]: 2640 nM | GI50 [34]: 1970 nM | TGI [34]: 4660 nM | GI50 [54]: 2740 nM | TGI [54]: 8010 nM | GI50 [35]: 1840 nM | TGI [35]: 3530 nM | GI50 [36]: 2160 nM | TGI [36]: 5240 nM | GI50 [37]: 1560 nM | TGI [37]: 3030 nM | GI50 [38]: 1570 nM | TGI [38]: 3270 nM | GI50 [55]: 5050 nM | TGI [55]: 16000 nM | GI50 [51]: 1730 nM | TGI [51]: 3260 nM | GI50 [39]: 1670 nM | TGI [39]: 3170 nM | GI50 [56]: 1630 nM | TGI [56]: 4270 nM | GI50 [40]: 702 nM | TGI [40]: 2680 nM | GI50 [41]: 1440 nM | TGI [41]: 3490 nM | GI50 [42]: 1740 nM | TGI [42]: 3400 nM | GI50 [43]: 1750 nM | TGI [43]: 3790 nM | GI50 [44]: 1550 nM | TGI [44]: 3090 nM | GI50 [45]: 1340 nM | TGI [45]: 2690 nM | GI50 [46]: 1250 nM | TGI [46]: 2560 nM
